Test results from ChEMBL document CHEMBL1201862, “PubChem BioAssay data set” (2004).
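The compound was tested at five concentrations on cells cultured in 96-well plates, with a 48-hour exposure period. GI50 is the concentration that inhibits growth by half.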 Activity calls are given as the source filed them. Rule as the data show it: active = GI50 up to about 1.1 µM and inactive = higher.

Tests used:
Experiment in all cases: inhibition of tumour cell growth, NCI panel, 48 h
SF-539 = system: SF-539
A549 = system: A549
SK-MEL-2 = system: SK-MEL-2
LOX IMVI = system: LOX IMVI
MOLT-4 = system: MOLT-4
LXFL 529 = system: LXFL 529
K562 = system: K562
HOP-18 = system: HOP-18
KM-20L2 = system: KM-20L2
SK-OV-3 = system: SK-OV-3
COLO 205 = system: COLO 205
SN12C = system: SN12C
MDA-N = system: MDA-N
OVCAR-8 = system: OVCAR-8
OVCAR-3 = system: OVCAR-3
KM12 = system: KM12
HOP-92 = system: HOP-92
NCI-H226 = system: NCI-H226
SF-268 = system: SF-268
CAKI-1 = system: CAKI-1
DLD-1 = system: DLD-1
SK-MEL-5 = system: SK-MEL-5
SW-620 = system: SW-620
OVCAR-5 = system: OVCAR-5
MDA-MB-435 = system: MDA-MB-435
Hs-578T = system: Hs-578T
RXF 393 = system: RXF 393
SK-MEL-28 = system: SK-MEL-28
CCRF-CEM = system: CCRF-CEM
NCI-H23 = system: NCI-H23
M14 = system: M14
M19-MEL = system: M19-MEL
HCT-116 = system: HCT-116
BT-549 = system: BT-549
Malme-3M = system: Malme-3M
UACC-257 = system: UACC-257
HOP-62 = system: HOP-62
UACC-62 = system: UACC-62
SR = system: SR
T47D = system: T47D
HL-60 = system: HL-60
ACHN = system: ACHN
SNB-75 = system: SNB-75
RPMI-8226 = system: RPMI-8226
IGROV-1 = system: IGROV-1
U-251 = system: U-251
DU-145 = system: DU-145
DMS-114 = system: DMS-114
MCF7 = system: MCF7
SNB-78 = system: SNB-78
SNB-19 = system: SNB-19
OVCAR-4 = system: OVCAR-4
NCI/ADR-RES = system: NCI/ADR-RES
DMS-273 = system: DMS-273
UO-31 = system: UO-31
PC-3 = system: PC-3
HCT-15 = system: HCT-15
EKVX = system: EKVX
MDA-MB-231 = system: MDA-MB-231
HT-29 = system: HT-29
XF498 = system: XF498
NCI-H460 = system: NCI-H460
786-0 = system: 786-0
HCC 2998 = system: HCC 2998
SF-295 = system: SF-295
TK-10 = system: TK-10
A498 = system: A498
NCI-H522 = system: NCI-H522
RXF 631 = system: RXF 631

Compound: CC[C@@]1(O)C(=O)OCc2c1cc1n(c2=O)Cc2cc3ccccc3nc2-1 [CAMPTOTHECIN]
- GI50 (SF-539): 0.0145 µM (active)
- GI50 (A549): 0.0181 µM (active)
- GI50 (SK-MEL-2): 0.298 µM (active)
- GI50 (LOX IMVI): 0.0261 µM (active)
- GI50 (MOLT-4): < 0.01 µM (active)
- GI50 (LXFL 529): 0.372 µM (active)
- GI50 (K562): 0.0764 µM (active)
- GI50 (HOP-18): 0.122 µM (active)
- GI50 (KM-20L2): 0.0776 µM (active)
- GI50 (SK-OV-3): 0.0202 µM (active)
- GI50 (COLO 205): 0.286 µM (active)
- GI50 (SN12C): 0.014 µM (active)
- GI50 (MDA-N): 0.145 µM (active)
- GI50 (OVCAR-8): 0.0388 µM (active)
- GI50 (OVCAR-3): 0.177 µM (active)
- GI50 (KM12): 0.159 µM (active)
- GI50 (HOP-92): 0.0337 µM (active)
- GI50 (NCI-H226): 0.0179 µM (active)
- GI50 (SF-268): 0.0115 µM (active)
- GI50 (CAKI-1): 0.0118 µM (active)
- GI50 (DLD-1): 0.243 µM (active)
- GI50 (SK-MEL-5): 0.0272 µM (active)
- GI50 (SW-620): 0.0366 µM (active)
- GI50 (OVCAR-5): 0.0809 µM (active)
- GI50 (MDA-MB-435): 0.0658 µM (active)
- GI50 (Hs-578T): 0.817 µM (active)
- GI50 (RXF 393): 0.0256 µM (active)
- GI50 (SK-MEL-28): 0.228 µM (active)
- GI50 (CCRF-CEM): < 0.01 µM (active)
- GI50 (NCI-H23): 0.0194 µM (active)
- GI50 (M14): < 0.0206 µM (active)
- GI50 (M19-MEL): 0.048 µM (active)
- GI50 (HCT-116): 0.023 µM (active)
- GI50 (BT-549): 0.115 µM (active)
- GI50 (Malme-3M): 0.174 µM (active)
- GI50 (UACC-257): 0.0543 µM (active)
- GI50 (HOP-62): 0.0116 µM (active)
- GI50 (UACC-62): < 0.0106 µM (active)
- GI50 (SR): < 0.01 µM (active)
- GI50 (T47D): 0.0225 µM (active)
- GI50 (HL-60): 0.015 µM (active)
- GI50 (ACHN): < 0.0116 µM (active)
- GI50 (SNB-75): 0.0272 µM (active)
- GI50 (RPMI-8226): 0.0336 µM (active)
- GI50 (IGROV-1): 0.184 µM (active)
- GI50 (U-251): 0.0111 µM (active)
- GI50 (DU-145): < 0.01 µM (active)
- GI50 (DMS-114): 0.0206 µM (active)
- GI50 (MCF7): 0.0113 µM (active)
- GI50 (SNB-78): 0.333 µM (active)
- GI50 (SNB-19): 0.0182 µM (active)
- GI50 (OVCAR-4): 0.209 µM (active)
- GI50 (NCI/ADR-RES): 0.012 µM (active)
- GI50 (DMS-273): < 0.01 µM (active)
- GI50 (UO-31): 0.0303 µM (active)
- GI50 (PC-3): 0.0644 µM (active)
- GI50 (HCT-15): 0.152 µM
- GI50 (EKVX): 0.0951 µM (active)
- GI50 (MDA-MB-231): 0.938 µM (active)
- GI50 (HT-29): 0.0449 µM (active)
- GI50 (XF498): 0.0483 µM (active)
- GI50 (NCI-H460): 0.0158 µM (active)
- GI50 (786-0): < 0.0214 µM (active)
- GI50 (HCC 2998): 0.159 µM (active)
- GI50 (SF-295): 0.0115 µM (active)
- GI50 (TK-10): 1.32 µM (inactive)
- GI50 (A498): 0.0322 µM (active)
- GI50 (NCI-H522): 0.0223 µM (active)

Compound: O=[N+]([O-])c1ccc(Cl)c(C2CC(c3cccc4ccccc34)=Nc3ccccc3S2)c1 (stereo unspecified)
- GI50 (SF-539): 20.6 µM (inactive)
- GI50 (A549): 28.7 µM (inactive)
- GI50 (SK-MEL-2): 21.7 µM (inactive)
- GI50 (RXF 631): > 65 µM (inactive)
- GI50 (LOX IMVI): 20 µM (inactive)
- GI50 (MOLT-4): 6.75 µM (inactive)
- GI50 (LXFL 529): 18.5 µM (inactive)
- GI50 (K562): 6.31 µM (inactive)
- GI50 (HOP-18): 26.9 µM (inactive)
- GI50 (KM-20L2): 29.3 µM (inactive)
- GI50 (SK-OV-3): > 84.7 µM (inactive)
- GI50 (COLO 205): 61.2 µM (inactive)
- GI50 (SN12C): 21 µM (inactive)
- GI50 (OVCAR-8): 12.9 µM (inactive)
- GI50 (OVCAR-3): 16.3 µM (inactive)
- GI50 (KM12): 20.2 µM (inactive)
- GI50 (HOP-92): 2.64 µM (inactive)
- GI50 (NCI-H226): 27.6 µM (inactive)
- GI50 (SF-268): 18.7 µM (inactive)
- GI50 (CAKI-1): 21.9 µM (inactive)
- GI50 (DLD-1): 13.2 µM (inactive)
- GI50 (SK-MEL-5): 16.7 µM (inactive)
- GI50 (SW-620): 18.8 µM (inactive)
- GI50 (OVCAR-5): 42.1 µM (inactive)
- GI50 (RXF 393): 8.91 µM (inactive)
- GI50 (SK-MEL-28): 27.3 µM (inactive)
- GI50 (CCRF-CEM): 3.43 µM (inactive)
- GI50 (NCI-H23): 11.4 µM (inactive)
- GI50 (M14): 20.6 µM (inactive)
- GI50 (M19-MEL): 20.2 µM (inactive)
- GI50 (HCT-116): 6.68 µM (inactive)
- GI50 (Malme-3M): > 54.8 µM (inactive)
- GI50 (UACC-257): 31.6 µM (inactive)
- GI50 (HOP-62): 55.7 µM (inactive)
- GI50 (UACC-62): 15.4 µM (inactive)
- GI50 (SR): 3.58 µM (inactive)
- GI50 (HL-60): 5.21 µM (inactive)
- GI50 (ACHN): 34.1 µM (inactive)
- GI50 (SNB-75): 0.195 µM (active)
- GI50 (RPMI-8226): 2.6 µM (inactive)
- GI50 (IGROV-1): 48.5 µM (inactive)
- GI50 (U-251): 20.5 µM (inactive)
- GI50 (DMS-114): 20.2 µM (inactive)
- GI50 (SNB-78): 26.5 µM (inactive)
- GI50 (SNB-19): 44.4 µM (inactive)
- GI50 (OVCAR-4): 20.1 µM (inactive)
- GI50 (DMS-273): 20.4 µM (inactive)
- GI50 (UO-31): 18.4 µM (inactive)
- GI50 (HCT-15): 15.2 µM
- GI50 (EKVX): 70.8 µM (inactive)
- GI50 (HT-29): 17.3 µM (inactive)
- GI50 (NCI-H460): 26.5 µM (inactive)
- GI50 (786-0): 12.4 µM (inactive)
- GI50 (HCC 2998): 69 µM (inactive)
- GI50 (SF-295): 23.9 µM (inactive)
- GI50 (TK-10): 41 µM (inactive)
- GI50 (A498): > 45.2 µM (inactive)
- GI50 (NCI-H522): 14.3 µM (inactive)

Compound: NNC(=O)CC(=O)Nc1ccccc1F
- GI50 (SF-539): > 100 µM (inactive)
- GI50 (A549): > 100 µM (inactive)
- GI50 (RXF 631): > 100 µM (inactive)
- GI50 (LOX IMVI): > 100 µM (inactive)
- GI50 (MOLT-4): > 100 µM (inactive)
- GI50 (LXFL 529): > 100 µM (inactive)
- GI50 (K562): > 100 µM (inactive)
- GI50 (HOP-18): > 100 µM (inactive)
- GI50 (KM-20L2): > 100 µM (inactive)
- GI50 (SK-OV-3): > 100 µM (inactive)
- GI50 (COLO 205): > 100 µM (inactive)
- GI50 (SN12C): > 100 µM (inactive)
- GI50 (OVCAR-8): > 100 µM (inactive)
- GI50 (OVCAR-3): > 100 µM (inactive)
- GI50 (KM12): > 100 µM (inactive)
- GI50 (HOP-92): > 100 µM (inactive)
- GI50 (NCI-H226): > 100 µM (inactive)
- GI50 (SF-268): > 100 µM (inactive)
- GI50 (CAKI-1): > 100 µM (inactive)
- GI50 (DLD-1): > 100 µM (inactive)
- GI50 (SK-MEL-5): > 100 µM (inactive)
- GI50 (SW-620): > 100 µM (inactive)
- GI50 (OVCAR-5): > 100 µM (inactive)
- GI50 (RXF 393): > 100 µM (inactive)
- GI50 (SK-MEL-28): > 100 µM (inactive)
- GI50 (CCRF-CEM): > 100 µM (inactive)
- GI50 (NCI-H23): > 100 µM (inactive)
- GI50 (M14): > 100 µM (inactive)
- GI50 (M19-MEL): > 100 µM (inactive)
- GI50 (HCT-116): > 100 µM (inactive)
- GI50 (Malme-3M): > 100 µM (inactive)
- GI50 (UACC-257): > 100 µM (inactive)
- GI50 (HOP-62): > 100 µM (inactive)
- GI50 (UACC-62): > 100 µM (inactive)
- GI50 (HL-60): > 100 µM (inactive)
- GI50 (ACHN): > 100 µM (inactive)
- GI50 (SNB-75): > 100 µM (inactive)
- GI50 (RPMI-8226): > 100 µM (inactive)
- GI50 (IGROV-1): > 100 µM (inactive)
- GI50 (U-251): > 100 µM (inactive)
- GI50 (DMS-114): > 100 µM (inactive)
- GI50 (SNB-78): > 100 µM (inactive)
- GI50 (SNB-19): > 100 µM (inactive)
- GI50 (OVCAR-4): > 100 µM (inactive)
- GI50 (DMS-273): > 100 µM (inactive)
- GI50 (UO-31): > 100 µM (inactive)
- GI50 (HCT-15): > 100 µM
- GI50 (EKVX): > 100 µM (inactive)
- GI50 (HT-29): > 100 µM (inactive)
- GI50 (NCI-H460): > 100 µM (inactive)
- GI50 (786-0): > 100 µM (inactive)
- GI50 (HCC 2998): > 100 µM (inactive)
- GI50 (SF-295): > 100 µM (inactive)
- GI50 (A498): > 100 µM (inactive)
- GI50 (NCI-H522): > 100 µM (inactive)
